Measurements published in patent publication US12433549B1, “Molecular imaging of the cochlea” (University of South Florida, priority 2023, dated 2025).

What was measured:
[1] = In vivo SPECT-CT imaging after intravenous tail vein injection of 201Tl; set-up: species or system CBA/CaJ mice
Method: To test whether or not 201Tl can pass through the cochlear intrastrial fluid blood barrier, so as to image K^+ in a bony structure like the cochlea using SPECT techniques, in vivo experiments were performed with CBA/CaJ mice. Young adult mice were injected with TlCl radioactive solution intravenously with a dose of ˜400 μCi/animal in the tail vein. The Siemens Inveon® multimodality microPET/SPECT/CT platform was used (mouse brain pinhole collimator with a total of 12 projections) to image the brain, cochlea and whole body. CT imaging was also carried out for anatomical referencing. […] One animal was imaged for five continuous days, and as expected, the SPECT signal decreased over that time period in the cochlea and other body parts.
The region of interest (ROI) was drawn for the cochlea using anatomical images from the CT scans. Similarly, radiation signals (mean image intensity) from the two sides (left and right cochleae) were equal (FIG. 4b), indicating symmetrical absorption of the ^201Tl for the peripheral auditory system (cochlea). […] This observation (^201Tl maximum accumulation in the kidney) was consistent with the reported literature as ^201Tl is known to maximally accumulate there 17,18
After baseline phantom in vitro experiments were completed, in vivo imaging experiments were conducted using young adult CBA/CaJ mice (2-3 months old, n=6, 3 females and 3 males) to determine whether 201Tl can pass through the cochlear intrastrial fluid/blood barrier and if the bony cochlea can be imaged using SPECT. Each mouse was injected with approximately 400 μCi ^201Tl radiation into tail veins through a catheter. Similar to the in vitro phantom experiments, a total of 12 projections over a 360 arc were used to collect the images. During the imaging data collection, animals were under gas anesthesia (1-2% isoflurane) in an air-warmed imaging chamber (Harvard Apparatus, Cambridge, MA) to keep body temperature constant at 37° C., and the breathing rate and pattern were continuously monitored. For anatomical referencing of the cochlea, CT imaging was also conducted in conjunction with SPECT. The region of Interest (ROI) was drawn with the help of the CT referencing. Images were reconstructed using maximum-likely-hood expectation maximization (MLEM) algorithm, and finally, 3-D images were reconstructed with scattering and attenuation corrections.

[2] = Ex vivo SPECT-CT imaging and radioactivity measurements (gamma spectroscopy) of dissected cochleae and body tissues; type: in vivo, CBA/CaJ mice
Method: For further confirmation, a pair of cochleae from a single mouse were dissected and ex vivo measurements (SPECT-CT image and radioactivity measurements-gamma spectroscopy) were carried out. […] Mean intensity and total photons were calculated from both the cochleae SPECT images. […] Moreover, energy spectra were measured using a BioDEx ion chamber and both cochleae had the same spectra, with the peak energy around 68 KeV—same as ^201Tl energy peak (FIG. 6e). These ex vivo measurements further confirm the equal distribution of ^201Tl for both inner ears.
In addition, the radiation signal was measured from various body parts, in comparison to the cochlea. The measurements were calculated per gm of tissue (specific activity) to make comparisons among various tissues and specific activities were further normalized with brain specific activity.
At the end of the imaging session, animals were sacrificed and ex vivo experiments were carried out in which radiation signals were measured from various body regions, including the brain and cochlea. A pair of cochleae were dissected and ex vivo measurements were done using both SPECT-CT imaging as well as radioactivity measurements (BioDex 500 ion chamber; gamma spectroscopy). Images were reconstructed from SPECT-CT data as per the same algorithms and protocols used for the in-vivo experiments.

## [Cl][201Tl] [^201Tl, Thallium-201]
[1]; 3 males vs 3 females
  Sex difference in cochlear SPECT signal (mean image intensity): no sex difference
[1]; first scan after i.v. injection
  Time after injection at which SPECT radiation signals were observed from the cochlea: within minutes
[1]; in vivo SPECT
  Radiation signals (mean image intensity), left vs right cochleae: equal
[1]; in vivo SPECT, ROI drawn with CT, ~400 μCi/animal i.v. tail vein
  Average cochlear SPECT signal relative to brain signal: about two
[1]; in vivo SPECT-CT of mouse cochlea
  Entry of the radiotracer into the bony cochlea: can enter the bony cochlea
[1]; one animal imaged for five continuous days
  Change of SPECT signal in the cochlea and other body parts over time: decreased
[1]; whole body SPECT, ~400 μCi/animal i.v.
  Site of maximum accumulation, whole body SPECT imaging: kidney
[2]; ex vivo SPECT-CT of a dissected pair of cochleae from a single mouse
  Mean intensity and total photons, cochlea 1 vs cochlea 2: no quantitative difference
[2]; ex vivo radioactivity measurements
  Specific activity (per gm of tissue, normalized to brain) of the cochlea compared with other body parts: highest signal among most body parts, except kidney
[2]; ex vivo, gamma spectroscopy of body tissues
  Cochlear radioactivity signal relative to brain: 2.2 times
